# In paper PMC6383948, “Evaluation of a class of isatinoids identified from a high-throughput screen of human kinase inhibitors as anti-Sleeping Sickness agents” (PLoS Neglected Tropical Diseases, 2019):
# Marks after values point to notes of the source that are not given here.
# Columns and labels:
# [1] = system: T. b. brucei; assay: T. b. brucei growth inhibition EC50 assay (resazurin, 72 h); type: cell-based, Trypanosoma brucei brucei Lister 427; details: 72 h, resazurin, error within ±0.20 (Table 2) or ±0.08 (Table 3) log units; for EC50: Trypanosoma brucei, read-out: T.b.b. pEC50 (converted)
# Description: Mid-log phase growth T. b. brucei was diluted to a working cell density of 2,750 cells/mL and 90 μL/well dispensed into 96-well flat-bottom transparent assay plates (Nunc). Ten μL/well from intermediate plates were added. The final top concentration of compounds was 40 μM in 0.4% DMSO per well.
# Assay plates were incubated for 72 h at 37°C and 5% CO2. Four hours prior to the end of the incubation, 20 μL of a 440 μM resazurin solution in prewarmed HMI-9 was added to each well and incubated for another 4 h. Fluorescence was then measured in an Infinite F200 plate reader (Tecan) at 550 nm (excitation filter) and 590 nm (emission filter). A 4-parameter equation was employed to fit the dose-response curves and determine of EC50 using the SigmaPlot 13.0 software. Assays were performed in duplicate at least twice, to achieve a minimal n = 3 per dose response.
# Bloodstream Trypanosoma brucei brucei Lister 427 was cultured in Hirumi’s modified Iscove’s medium (HMI-9), supplemented with 10% heat-inactivated FBS, at 37 °C and 5% CO2 in T-25 vented flask (Corning®).
# For dose-response experiments, compound plates were prepared for each analogue by serial 3-fold dilutions in 100% DMSO. Five concentration points (mammalian cytotoxicity) or ten concentration points (parasite growth inhibition), were made in 96-well transparent Nunclon plates. Pentamidine is routinely included in compound plates as internal quality control, and plates are stored sealed at -20 °C for no more than four weeks.
# [2] = system: MRC5-SV2 cell line; assay: Cytotoxicity assay in MRC5 (resazurin, 48 h); type: cell-based, human; details: MRC5 toxicity
# Description: For dose-response experiments, compound plates were prepared for each analogue by serial 3-fold dilutions in 100% DMSO. Five concentration points (mammalian cytotoxicity) or ten concentration points (parasite growth inhibition), were made in 96-well transparent Nunclon plates. Pentamidine is routinely included in compound plates as internal quality control, and plates are stored sealed at -20 °C for no more than four weeks. Intermediate plates were made as described, adding 95 μL of DMEM complete media to 5 μL of compound per well setting a 5% DMSO amount. Log-phase MRC5 cells were removed from a T-75 TC flask using TrypLE® Express (Thermo®) and dispersed by gentle pipetting. Cell density was adjusted to working concentration in prewarmed DMEM medium: 25,000 cells in 90 μL of culture were plated in 96-well transparent Nunclon plates and let to settle for 24 h at 37 °C and 5% CO2. After settling incubation, 10 μL of fresh made intermediate plate were added per well: final maximal concentration for compounds was 50 μM in 0.5% DMSO per well. […] Fluorescence was read in an Infinite F200 plate reader (Tecan®) at 550 nm (excitation filter) and 590 nm (emission filter). A 4-parameter equation was used to fit the dose-response curves and determination of EC50 by SigmaPlot ® 13.0 software. Assays were performed in duplicate at least twice for positive compounds, to achieve a minimal n=3 per dose response.
# [3] = Aqueous pH 7.4 solubility; type: physicochemical; details: aqueous buffer, thermodynamic from solid; pH 7.4 phosphate buffer, 25 °C, 20-24 h; read-out: Aq. Solubility
# Description: Compounds are dried down from 10 mM DMSO solutions using centrifugal evaporation technique. Phosphate buffer (0.1 M pH 7.4) added and StirStix inserted in the glass vials, shaking is then performed at a constant temperature of 25 °C for 20-24 h. This step is followed by double centrifugation with a tip wash in between, to ensure that no residues of the dried compound are interfering. The solutions are diluted before analysis and quantification using LC/MS/MS is performed.
# [4] = system: S. mansoni adults and somules; assay: S. mansoni phenotypic assay, adults and somules (severity score); type: cell-based, Schistosoma mansoni (NMRI isolate); details: score 0-4; for Adult severity score (10 μM): adults; for Somule severity score (10 μM): somules
# Description: Maintenance of the Schistosoma mansoni life cycle, preparation of somules (post-infective larvae) and adult worms (≥42-days-old), and co-incubation of these stages with test compounds were as described. An NMRI isolate of S. mansoni was used for all whole-organism screens.
# Somules (40 units/well/96w round-bottomed plate) or adults (five paris/well/24w plate) were cultured in the presence of compounds at 10 µM and phenotypic changes observed as a function of time using an Zeiss Axiovert A1 inverted microscope (Table S4). A constrained nomenclature was used to describe the effects of compounds on parasites (changes in shape, motility and density). To generate a partially quantitative output for comparing drug effects, each descriptor was awarded a score of 1 and these were summed to a maximum score of 4 [7-10]: evidence of degeneracy or death was awarded the maximum score of 4. For adults specifically, damage to the tegument (outer surface) was also awarded a score of 4 based on the indication that damage to the patrasite’s surface is lethal in vivo [11]. Assays were performed twice and representative data are shown.
# [5] = system: T. cruzi; assay: β-D-Galactosidase transgenic T. cruzi assay (amastigote-infected L6 cells); type: cell-based, T. cruzi Tulahuen C4 strain; details: Trypanosoma cruzi, 96 h, read-out: T. cruzi pEC50 (converted)
# Description: The T. cruzi Tulahuen C4 strain, expressing the β-galactosidase gene (LacZ) and L6 rat skeletal muscle cells, used as host cells, were cultured in RPMI-1640 supplemented with 10% iFBS, 2 mM L-glutamine, 100 U/mL penicillin, and 100 μg/mL streptomycin at 37 °C and 5% CO2.
# A Thermo Scientific Multidrop Combi dispenser (MTX Lab Systems, Vienna, VA) was used to dispense 90 μL of T. cruzi amastigote–infected L6 cell culture (4×10^3 infected L6 cells per well) into 96-well Corning assay plates (Corning Inc., Corning, NY) already containing 10 μL of the compounds to be screened and controls. The plates were incubated at 37 °C for 96 h. Then, 30 μL of 100 μM CPRG and 0.1% NP40 diluted in PBS were added to each well, and the plates were incubated for 4 h at 37 °C in the dark. Absorbance at 585 nm was measured in a Vmax kinetic microplate reader ([…]). Compound activities were normalized using the in-plate negative (benznidazole at 10 μg/mL) and positive (0.2% DMSO) growth controls.
# [6] = Human plasma protein binding (equilibrium dialysis); type: in vitro ADME; details: pH 7.4, read-out: PPB (converted)
# Description: PPB is determined using equilibrium dialysis (RED device) to separate free from bound compound. The amount of compound in plasma (10 µM initial concentration) and in dialysis buffer (pH 7.4 phosphate buffer) is measured by LC-MS/MS after equilibration at 37 °C in a dialysis chamber. The fraction unbound (fu) is reported.
# [7] = Shake-flask octanol-water Log D7.4; type: physicochemical; details: pH 7.4, octanol-water shake-flask
# Description: Shake-flask octanol-water distribution coefficient at pH 7.4 (Log D7.4). The aqueous solution used is 10 mM sodium phosphate pH 7.4 buffer. The method has been validated for Log D7.4 ranging from -2 to 5.0.
# [8] = system: L. donovani; assay: EC50 in L. donovani (infected THP-1 macrophages, luciferase); type: cell-based, Leishmania donovani MHOM/ET/67/HU3; details: Leishmania donovani, 72 h, read-out: L. donovani pEC50 (converted)
# Description: Leishmania donovani MHOM/ET/67/HU3 cells with the luciferase gene integrated into the parasite genome[1] were grown at 28 °C in RPMI 1640-modified medium (Invitrogen) supplemented with 20% FBS with […] of hygromycin B.
# The Human myelomonocytic cell line THP-1 was grown at 37 °C and 5% CO2 in RPMI-1640 supplemented with 10% iFBS, 2 mM […], 100 U/mL penicillin and […] streptomycin. 3 x 10^4 THP-1 cells per well in 96-well plates were differentiated to macrophages with 20 ng/mL of PMA treatment for 48 h followed by 24 h of culture in fresh medium.
# Macrophage-differentiated THP-1 cells were infected at a macrophage/parasite ratio of 1/10 with stationary L. donovani promastigotes for 24 h at 35 °C and 5% CO2, and extracellular parasites were removed by washing with PBS. Infected cell cultures were then incubated with different compounds concentrations at 37 °C for 72 h. Luminescence was measured using the Promega kit luciferase assay system (Promega, Madison, WI). Assays were performed in duplicate at least twice, to achieve a minimal n=3 per dose response.
# [9] = Human liver microsomal CLint; type: in vitro ADME; details: human, liver microsomes, read-out: HLM Clint
# Description: In vitro intrinsic clearance determined from human liver microsomes using a standard approach. Following incubation and preparation, the samples are analyzed using LC/MS/MS.
Compound,T.b.b. pEC50 [1],MRC5 pTC50 [2],EC50 [1] [µM],further results
CCc1cccc2c1/C(=N/Nc1ccc(S(N)(=O)=O)cc1)C(=O)N2 [NEU-5489],7.5,<5.0^b,–,–
CC(C)Cc1cccc2c1/C(=N/Nc1ccc(S(N)(=O)=O)cc1)C(=O)N2 [NEU-5487],7.4,<5.0^b,–,–
Cc1ccc2c3c(ccc2n1)NC(=O)/C3=N\Nc1ccc(S(N)(=O)=O)cc1 [NEU-5456],–,<5.0^b,0.0398,–
Cc1cc2c(c(C)c1O)/C(=N/Nc1ccc(S(N)(=O)=O)cc1)C(=O)N2 [NEU-5469],8.2,<5.0^b,–,–
CC(C)c1cccc2c1/C(=N/Nc1ccc(S(N)(=O)=O)cc1)C(=O)N2 [NEU-5491],7.6,<5.0^b,–,–
NS(=O)(=O)c1ccc(N/N=C2\C(=O)Nc3cccc(CC4CCC4)c32)cc1 [NEU-5492],6.9,<5.0^b,–,–
NS(=O)(=O)c1ccc(N/N=C2\C(=O)Nc3ccc(Cl)cc32)cc1 [NEU-2319],6.0,<5.0^b,–,–
NS(=O)(=O)c1ccc(N/N=C2\C(=O)Nc3cccc(CCc4ccc(O)cc4)c32)cc1 [NEU-5493],6.0,–,–,–
CCc1ccc2c(c1)NC(=O)/C2=N\Nc1ccc(S(N)(=O)=O)cc1 [NEU-5470],6.1,<5.0^b,–,–
Cc1cc2c(c(Cl)c1O)/C(=N/Nc1ccc(S(N)(=O)=O)cc1)C(=O)N2 [NEU-5485],7.1,<5.0^b,–,–
Cc1ccc2c(c1C)/C(=N/Nc1ccc(S(N)(=O)=O)cc1)C(=O)N2 [NEU-5479],6.9,<5.0^b,–,–
"COc1ccc(N/N=C2\C(=O)Nc3ccccc32)cc1 [NEU-2114, (Z)-3-(2-(4-Methoxyphenyl)hydrazono)indolin-2-one]",–,<4.3,10,solubility [3]: < 7 µM; Adult severity score (10 μM) ([4]; 3h): 0; Adult severity score (10 μM) ([4]; 6h): 0; Adult severity score (10 μM) ([4]; 24h): 0; Adult severity score (10 μM) ([4]; 48h): 0; Somule severity score (10 μM) ([4]; 24h): 2; Somule severity score (10 μM) ([4]; 48h): 0; EC50 [5]: > 10 µM; fraction unbound at 10 µM [6]: < 0.03; logD [7]: > 3.3; EC50 [8]: > 10 µM
"O=C1Nc2ccccc2/C1=N/Nc1cc(Cl)cc(Cl)c1 [NEU-2117, (Z)-3-(2-(3,5-Dichlorophenyl)hydrazono)indolin-2-one]",–,<4.3,> 39.8,solubility [3]: < 3 µM; Adult severity score (10 μM) ([4]; 3h): 1; Adult severity score (10 μM) ([4]; 6h): 0; Adult severity score (10 μM) ([4]; 24h): 0; Adult severity score (10 μM) ([4]; 48h): 3; Somule severity score (10 μM) ([4]; 24h): 0; Somule severity score (10 μM) ([4]; 48h): 0; EC50 [5]: > 10 µM; fraction unbound at 10 µM [6]: < 0.04; logD [7]: > 3.7; EC50 [8]: > 10 µM
NC(=O)c1cccc2c1/C(=N/Nc1ccc(S(N)(=O)=O)cc1)C(=O)N2 [NEU-5460],6.2,<5.0^b,–,–
"CC(C)=Cc1cccc2c1/C(=N/Nc1ccc(S(=O)(=O)N(C)C)cc1)C(=O)N2 [NEU-4405, (Z)-N,N-Dimethyl-4-(2-(4-(2-methylprop-1-en-1-yl)-2-oxoindolin-3-ylidene)hydrazinyl)benzenesulfonamide]",–,<4.3,5.01,EC50 [5]: > 20 µM; EC50 [8]: > 5.01 µM
Cc1c(Cl)ccc2c1/C(=N/Nc1ccc(S(N)(=O)=O)cc1)C(=O)N2 [NEU-5464],7.3,<5.0^b,–,–
NS(=O)(=O)c1ccc(NN=C2C(=O)Nc3cc4c(cc32)NCC4)cc1 [NEU-5459],–,<5.0^b,0.794,–
CC(C)c1cc2c(c(Cl)c1O)/C(=N/Nc1ccc(S(N)(=O)=O)cc1)C(=O)N2 [NEU-5455],6.4,<5.0^b,–,–
"NS(=O)(=O)c1ccc(N/N=C2\C(=O)Nc3ccccc32)cc1 [NEU-2115, (Z)-4-(2-(2-Oxoindolin-3-ylidene)hydrazinyl)benzenesulfonamide]",–,<4.3,1.26,solubility [3]: < 8 µM; EC50 [5]: > 10 µM; microsomal CLint [9]: 20.4 µL/min/mg; fraction unbound at 10 µM [6]: 0.04; logD [7]: 2.3; EC50 [8]: > 10 µM
